From US7955847B2, “Method for enhancing leukocyte immune function” (priority 2004, dated 2011)

System: leukocyte NADPH oxidase (cytochrome b558)
Assay: Cell surface expression of cytochrome b558 (NADPH oxidase) by flow cytometry with antibody 7D5
Format: cell-based, human
Details: leukocytes from X91-CGD patient; 2 hrs treatment; anti-cytochrome b558 antibody 7D5, flow cytometry
Description: Blood samples with EDTA were obtained from patients with X91-chronic granulomatous disease. The samples were water bathed at 37° C. in a lysate buffer containing ammonium chloride, sodium carbonate and EDTA for several minutes to lyze residual red blood cells. The samples were then added with a suspension buffer containing globulin and EDTA to wash and remove the residual lysate buffer. The leukocytes were collected by centrifugation and counted.
Total leukocytes were maintained in RPMI 1640 medium supplemented with 10% heat-inactivated FBS at 37° C. under a humidified atmosphere (5% CO2+95% air). The leukocytes were seeded at a density of 3 to 5×10^5/ml and grown for 2 hrs in the presence or absence of 100 nM cofactor FAD and/or thapsigargin (100 nM or 1 μM). The cells were then cultured in 10% RPMI to recover for 1 hr prior to the following experiments.
To test whether the treatment with thapsigargin or cofactor FAD alone or in combination has effects on the cell surface expression of leukocyte NADPH oxidase, the cell surface expressions of cytochrome b558 in leukocytes with or without desired treatment were assayed. Leukocytes were prepared as illustrated in Example 1. The leukocytes, at the concentration of 5×10^5 cells/ml, were incubated with anticytochrome b558 monoclonal antibody (7D5) at 4° C. for 30 min, followed by incubation with FITC-labeled goat anti-mouse IgG for 40 min.

SMILES	cell surface NADPH oxidase expression
C/C=C(/C)C(=O)O[C@H]1C(C)=C2[C@H]([C@@H]1OC(=O)CCCCCCC)[C@@](C)(OC(C)=O)C[C@H](OC(=O)CCC)[C@@]1(O)[C@H]2OC(=O)[C@@]1(C)O [thapsigargin]	slightly enhanced
Cc1cc2nc3c(=O)[nH]c(=O)nc-3n(C[C@H](O)[C@H](O)[C@H](O)COP(=O)(O)OP(=O)(O)OC[C@H]3O[C@@H](n4cnc5c(N)ncnc54)[C@H](O)[C@@H]3O)c2cc1C [cofactor FAD, flavin adenine dinucleotide]	slightly enhanced
